Data set [1] has as its system aromatase activity in SK-BR-3 breast cancer cells. The data set can be described thus: Aromatase tritiated water-release assay in SK-BR-3 cell lines (first compound set). The class given is cell-based, human. The conditions noted are these: SK-BR-3 cells, 24 h treatment; five concentrations, each in triplicate; read-out: IC50 (μM), suppression of aromatase activity in SK-BR-3 breast cancer cells. On the procedure:
Aromatase Tritiated Water-Release Assay in SK-BR-3 Cell Lines. SK-BR-3 cells were obtained from ATCC (Rockville, Md.). Cell cultures were maintained in phenol red-free custom media (MEM, Earle's salts, 1.5× amino acids, 2× nonessential amino acids, L-glutamine, 1.5× vitamins, Gibco BRL) supplemented with 10% fetal bovine serum (FBS), 2 mM L-glutamine, and 20 mg/L gentamycin. Measurement of aromatase enzyme activity was based on the tritium water release assay. 24 Cells in 100 mm Petri dish were treated with 0.1% DMSO (control), and inhibitors at the indicated concentrations. After 24 h, the media was changed and the cells were incubated with 100 nM [1â-3H]-androst-4-ene-3,17-dione ([…]) for 3 h. Subsequently, the reaction mixture was removed, and proteins were precipitated using 10% trichloroacetic acid at 42° C. for 20 min. After a brief centrifugation, the media was extracted three times with an equal amount of chloroform to extract unused substrate and further dextran-treated charcoal. After centrifugation, a 250-μL aliquot containing the product was counted in 5 mL of liquid scintillation mixture. Results were corrected for blanks and for the cell contents of culture flasks, and results were expressed as picomoles of 3H2O formed per hour incubation time per million live cells (pmol/h/10^6 cells). To determine the amount of cells in each flask, the cells were trypsinized and analyzed using the diphenylamine DNA assay adapted to a 96-well plate. (Natarajan N.; Shambaugh, G. E., 3rd; Elseth K. M.; Haines G. K.; Radosevich J. A. Adaptation of the diphenylamine (DPA) assay to a 96-well plate tissue culture format and comparison with the MTT assay. Biotechniques 1994, 17, 166-171; incorporated herein by reference). IC50 sigmoidal dose-response data were analyzed with Microsoft Excel and the Graphpad Prism (Version 3.0) program.

The test system of data set [2] is CYP19 mRNA expression in SK-BR-3 cells. The data set is described as follows: CYP19 mRNA expression by real-time RT-PCR in SK-BR-3 cells. The class given is cell-based, human. The conditions noted are these: 5 μM, 24 h (FIG. 14). The protocol: RNA Extraction. Total RNA was isolated using the TRIzol reagent according to the manufacturer's protocol. Total RNA pellets were dissolved in DNase- and RNase-free water and quantitated using a spectrophotometer. The quality of RNA samples was determined by electrophoresis through agarose gels and staining with ethidium bromide; the 18S and 28S rRNA bands were visualized under ultraviolet light.
(§1) cDNA Synthesis. Isolated total RNA (2 μg) was treated with DNase I Amplification grade, according to the recommended protocol to eliminate any DNA before reverse transcription. Treated total RNA was denatured at 65° C. for 5 min in the presence of 2.5 ng/μL random hexamers and 0.5 mM dNTP mix. The samples were snap-cooled on ice and centrifuged briefly. Complementary DNA (cDNA) was synthesized using Superscript II reverse transcriptase according to the recommended protocol. Briefly, the reactions were conducted in the presence of 1× First-Strand Buffer and 20 mM DTT at 42° C. for 50 min and consequently inactivated at 70° C. for 15 min. The cDNA generated was used as a template in realtime PCR reactions.
Real-Time PCR. Real-time PCR was performed using the Opticon 2 system from MJ Research (Waltham, Mass.). For the CYP19 total gene the PCR reaction mixture consisted of Taqman Universal PCR Master Mix (Applied Biosystems), 600 nM of CYP19 primer (sense: 5′-TGTCTCTTTGTTCTTCATGCTATTTCTC-3′ (SEQ ID NO: 1); antisense: 5′-TCACCAATAACAGTCTGGATTTCC-3′) (SEQ ID NO: 2); 250 nM Taqman probe (6FAM 5′-TGCAAAGCACCCTAATGTTGAAGAGGCAAT-3′TAMRA) (SEQ ID NO: 3) (Invitrogen), 18S rRNA (Applied Biosystems, Foster City, Calif.), and 2.0 μL of each RT sample in a final volume of 20 μL. The Taqman probe was designed to anneal to a specific sequence of the aromatase gene between the forward and the reverse primers. Cycling conditions were 50° C. for 2 mm and 95° C. for 10 mm, followed by 50 cycles at 95° C. for 15 s and 60° C. for 1 mm.
RNA extraction. Total RNA was isolated using the TRIzol reagent according to the manufacturer's protocol. Total RNA pellets were dissolved in DNase, RNase-free water and quantitated using a spectrophotometer. The quality of RNA samples was determined by electrophoresis through agarose gels and staining with ethidium bromide; the 18S and 28S rRNA bands were visualized under ultraviolet light.
as §1, with “synthesis.” for “Synthesis.”, “real-time” for “realtime”
Real-time PCR. Real-time PCR was performed using the Opticon™ 2 system from MJ Research (Waltham, Mass.). For the CYP19 total gene the PCR reaction mixture consisted of Taqman® Universal PCR Master Mix (Applied Biosystems), 600 nM of CYP19 primer (sense: 5′-TGTCTCTTTGTTCTTCATGCTATTTCTC-3′ (SEQ ID NO: 1); antisense: 5′-TCACCAATAACAGTCTGGATTTCC-3′) (SEQ ID NO: 2); 250 nM Taqman probe (6FAM 5′-TGCAAAGCACCCTAATGTTGAAGAGGCAAT-3′TAMRA) (SEQ ID NO: 3) (Invitrogen), and 2.0 μL of each cDNA sample in a final volume of 20 μL. […]
A general note: Real-time PCR tracks product formation cycle by cycle.

For `CCCCCCOc1cc([N+](=O)[O-])ccc1N(C)S(C)(=O)=O` [Compound 24, N-Methyl-N-(2-hexyloxy-4-nitrophenyl)methanesulfonamide], the melting point (as a rule, the temperature, or range, at which the solid turns liquid) was in the range of 44 to 46 °C. Further, the IC50 (usually the concentration that gives 50% inhibition) in data set [1] stood at 4.49 µM.

In the case of `CCCCCCOc1cc([N+](=O)[O-])ccc1NS(C)(=O)=O` [Compound 15, N-(2-Hexyloxy-4-nitrophenyl)methanesulfonamide], the melting point lay within 74 to 76 °C. In data set [1], the IC50 turned out to be 2.67 µM.

On to `COc1cc([N+](=O)[O-])ccc1N(C)S(C)(=O)=O` [Compound 25, N-Methyl-N-(2-methoxy-4-nitrophenyl)methanesulfonamide], for which the melting point was 125 to 126 °C. For the same compound, in data set [1], the 50% inhibitory concentration (IC50) is above 25 µM.

`COc1cc([N+](=O)[O-])ccc1NS(C)(=O)=O` [Compound 16, N-(2-Methoxy-4-nitrophenyl)methanesulfonamide] had a melting point of 128 to 130 °C. In data set [1], the IC50 is above 25 µM.

`CC(C)Oc1cc([N+](=O)[O-])ccc1NS(C)(=O)=O` [Compound 10, N-(2-Isopropyloxy-4-nitrophenyl)methanesulfonamide] came in with a melting point of 128 to 131 °C. In data set [1], the IC50 worked out at 5.87 µM.

`CCCOc1cc([N+](=O)[O-])ccc1NS(C)(=O)=O` [Compound 9, N-(2-Propyloxy-4-nitrophenyl)methanesulfonamide]: the melting point fell in the range of 117 to 119 °C. Besides, the half-inhibitory concentration (IC50) in data set [1] was determined as 2.51 µM.

With `CCCCCCCCCOc1cc([N+](=O)[O-])ccc1N(C)S(C)(=O)=O` [Compound 23, N-Methyl-N-(2-nonyloxy-4-nitrophenyl)methanesulfonamide], the melting point lay within 83 to 84 °C. For the same compound, the IC50 in data set [1] was determined as 3.96 µM.

As for `CS(=O)(=O)Nc1ccc([N+](=O)[O-])cc1OCCc1ccccc1` [Compound 37b, N-(2-phenylethoxy 4-nitrophenyl) methanesulfonamide], in data set [2], the CYP19 gene expression result was “not affect the CYP19 gene expression”.

Compound `CCCOc1cc([N+](=O)[O-])ccc1N(C)S(C)(=O)=O` [Compound 18, N-Methyl-N-(2-propyloxy-4-nitrophenyl)methanesulfonamide] gave a melting point of 66 to 69 °C. In addition, the IC50 in data set [1] was found to be 0.76 µM.

Regarding `CC(C)Oc1cc([N+](=O)[O-])ccc1N(C)S(C)(=O)=O` [Compound 19, N-Methyl-N-(2-isopropyloxy-4-nitrophenyl)methanesulfonamide], the melting point was 99 to 100 °C. In data set [1], the half-inhibitory concentration (IC50) was 2.81 µM.

`CCCCCCCCCOc1cc([N+](=O)[O-])ccc1NS(C)(=O)=O` [Compound 14, N-(2-Nonyloxy-4-nitrophenyl)methanesulfonamide]: the melting point lay in the range of 70 to 71 °C. The IC50 in data set [1] is 0.91 µM.
